Entries after “also recorded” stand apart in the source; their conditions may differ.
Experiments:
Assay type in all cases: cell-based, human
[1] = test system: HEK293; experiment: MTT assay, cytotoxicity to normal cell line
Protocol: Human cancer cell lines BEL-7402, A549, MCF-7, PC-3M, and normal renal cell line HEK293 were bought from the BeNa Culture Collection (Beijing, China). BEL7402, A549, and PC-3M were cultured in RPMI 1640 medium (Gibco, Carlsbad, CA, USA). MCF-7 and HEK293 were cultured in the DMEM medium (Gibco, CA, USA). The medium was supplemented with 10% fetal bovine serum (FBS) (CLARK, San Diego, CA, USA), 100 U/mL penicillin, and 0.1 mg/mL streptomycin (Beyotime, Nanjing, China). The cells were incubated in 5% CO2 at 37 °C.
The MTT assay was employed to assess the inhibitory effect of each compound on cell growth. A549, PC-3M, MCF-7, BEL-7402, and HEK293 cells in the logarithmic growth phase were seeded in 96-well culture plates at an inoculum density of 5 × 10^4 cells/mL. After overnight incubation at 37 °C in a 5% CO2 atmosphere, the cells fully adhered to the surface. Different concentrations of sample solutions (0, 3.125, 6.25, 12.5, 25, 50, 100 μmol/L) were added (100 μL) to treat the cells. After 48 h of drug treatment, 10 μL of a 5 mg/mL MTT solution was added to each well and incubated for 4 h at 37 °C. The supernatant was then discarded, and 150 μL of DMSO was added to dissolve the formazan. The mixture was shaken at room temperature for 15 min, and the absorbance (D) value was measured at 490 nm using a Microplate Reader (HBS-ScanY, Nanjing, China). The drug IC50 values were calculated using GraphPad Prism (v10.0). Each cell viability experiment was performed in triplicate.

[2] = test system: mitochondria of BEL-7402 cells; experiment: HPLC analysis of accumulation in mitochondria; conditions: 10 μM
Protocol: BEL-7402 cells were cultured in 100 mm Petri dishes. When the cell density reached 90%, the cells were treated with different drugs, all at the same concentration (ICT and Mito-ICT-4 were both set at 10 μM). After 9 h of drug treatment, intracellular mitochondria were isolated from the different drug-treated groups using a mitochondrial isolation kit (Beyotime, Nanjing, China). The mitochondria were resuspended in 200 μL of phosphate-buffered saline (PBS), and an equal volume of anhydrous dichloromethane was added. Ultrasonic extraction was performed three times, and the lower organic phase was collected. Dichloromethane was removed, and the sample was resuspended in 200 μL of 0.1% formic acid in methanol. A 20 μL sample was analyzed and quantified by HPLC. HPLC analysis was conducted using an ALLTECH 26-201 (Jerome, CA, USA) with a flow rate of 1 mL/min. The stationary phase was Agilent ZORBAX SB-C18 (250 mm × 4.6 mm, 5 μm, Santa Clara, CA, USA), and the mobile phase consisted of methanol-0.1% formic acid in water (80:20).

[3] = test system: BEL-7402 cells; experiment: Calcein AM/CoCl2 probe, MPTP opening; conditions: increasing drug concentration, 24 h
Protocol: Drug grouping and administration were performed as described in Section 2.5. After 24 h of incubation, 500 μL of staining solution (containing 2 μM Calcein AM and 5 mM CoCl2) (Aladdin, Shanghai, China) was added to each well. The cells were stained for 30 min at 37 °C and protected from light. After staining, the solution was discarded, and the cells were washed twice with PBS. The cells were then observed under an inverted fluorescence microscope.

[4] = test system: BEL-7402 cells; experiment: DCFH-DA probe, intracellular ROS by flow cytometry; conditions: 48-h treatment, dose-dependent
Protocol: Drug grouping and administration were performed as described in Section 2.6. After 48 h of incubation, 500 μL of DCFH-DA probe (Beyotime, Nanjing, China) was added to each well. The cells were stained for 30 min at 37 °C and protected from light. The dye was then discarded, and the cells were washed three times with a serum-free medium. Samples were analyzed using flow cytometry with an excitation wavelength of 480 nm and an emission wavelength of 525 nm.

[5] = test system: CypD; experiment: qRT-PCR; conditions: vs blank control, BEL-7402, p < 0.05
Protocol: (§1) Total RNA was extracted from BEL-7402 cells before and after Mito-ICT-4 treatment using the Trizol method. The RNA was then reverse transcribed and used for quantitative real-time PCR (qRT-PCR) analysis. All gene sequences were obtained from the official website of NCBI (http://ncbi.nlm.nih.gov, accessed on 16 December 2023), and primers were designed and synthesized by Sangon Biotech. β-actin was used as an internal reference. To each well, 10 µL of 2 × SGExcel FastSYBR (Sangon Biotech, Shanghai, China) mixture was added, along with 0.4 µL each of forward and reverse primers (F/R), followed by 2 µL of cDNA. The volume was then adjusted to 20 µL with water. The qRT-PCR amplification procedure included the following steps: pre-denaturation at 95 °C for 3 min, denaturation at 95 °C for 15 s, and annealing at 60 °C for 45 s. A total of 45 cycles were performed. Fluorescence signals were collected from 60 °C to 95 °C using an ABI 7500 fluorescence quantitative PCR instrument (ABI, Waltham, MA, USA). Gene expression was calculated using the 2^−ΔΔCt method.

[6] = test system: DDIT3; experiment: qRT-PCR; conditions: vs blank control, BEL-7402, p < 0.05
Protocol: as §1

[7] = test system: MKK6; experiment: qRT-PCR; conditions: vs blank control, BEL-7402, p < 0.05
Protocol: as §1

[8] = test system: P38; experiment: qRT-PCR; conditions: vs blank control, BEL-7402, p < 0.05
Protocol: as §1

[9] = test system: SIRT3; experiment: qRT-PCR; conditions: vs blank control, BEL-7402, p < 0.05
Protocol: as §1

accumulation in mitochondria relative to ICT ([2]; 9 h): approximately 2.5 times
SMILES: COc1ccc(-c2oc3c(CC=C(C)C)c(OC(=O)CCCCCCCCCC[P+](c4ccccc4)(c4ccccc4)c4ccccc4)cc(O)c3c(=O)c2O)cc1 [Mito-ICT-4]
IC50 ([1]; Homo sapiens, HEK293, MTT, 48 h drug exposure, mean ± SD, normal cell line): 67.1 ± 2.09 µM | reduction compared to ICT (cytotoxicity in HEK293 cells) ([1]; from IC50 values in HEK293): 55.4% | fate after entering the mitochondria [2]: hydrolysis to ICT; also recorded: hydrolyzed to ICT | morphology with Calcein AM/CoCl2 (MPTP opening) [3]: transitioned from oval to round and, ultimately, to an irregular shape | intracellular ROS levels [4]: significantly elevated | CypD gene expression level [5]: significantly upregulated | DDIT3 gene expression level [6]: significantly upregulated | MKK6 gene expression level [7]: significantly downregulated | P38 gene expression level [8]: significantly downregulated | SIRT3 gene expression level [9]: significantly downregulated
